Reference: ChEMBL document CHEMBL6074689 (Eur J Med Chem, 2025)
Calls of active or inactive are those of the source. The calls are words filed in the database; no cut-off is given here.

Key:
[1] = system: Mus musculus; test: Neuroprotective activity against scopolamine-induced Swiss albino mouse model assessed as upregulation of PKA mRNA level at 0.3 to 0.5 mg/kg, po measured after 6 days by RT-PCR analysis; type: functional, organism-based; conditions: dose 0.3-0.5 mg/kg, time 6.0 day
[2] = Acute toxicity in Swiss albino mouse assessed as abnormal behavior at 175 mg/kg, po administered for 14 days; type: organism-based; conditions: in vivo, 336 h, time 14 day
[3] = system: Mus musculus; test: Neuroprotective activity against scopolamine-induced Swiss albino mouse model assessed as increase in CREB1 mRNA level at 0.3 to 0.5 mg/kg, po measured after 6 days by RT-PCR analysis; type: functional, organism-based; conditions: dose 0.3-0.5 mg/kg, time 6.0 day
[4] = Toxicity in Drosophila melanogaster Oregon R-positive assessed as reduction in eclosed flies at 40 uM measured for 15 days relative to control; parameters: scale not given: the % may be the effect or the level left; conditions: 360 h, time 15 day
[5] = Acute toxicity in Swiss albino mouse assessed as tremor at 175 mg/kg, po administered for 14 days; type: organism-based; conditions: in vivo, 336 h, time 14 day
[6] = system: Mus musculus; test: Antialzheimer activity in scopolamine-induced Swiss albino mouse model assessed as reduction in BChE level at 0.3 to 0.5 mg/kg, po preincubated with compound for 30 mins followed by scopolamine induction and measured after 30 mins; type: functional, organism-based; conditions: dose 0.3-0.5 mg/kg, time 1.0 hrs
[7] = system: Mus musculus; test: Antioxidant activity against scopolamine-induced Swiss albino mouse model assessed as increase in catalase level in brain at 0.3 to 0.5 mg/kg, po by absorbance based analysis; type: functional, organism-based; conditions: dose 0.3-0.5 mg/kg
[8] = system: Mus musculus; test: Neuroprotective activity against scopolamine-induced Swiss albino mouse model assessed as increase in C-FOS mRNA level at 0.3 to 0.5 mg/kg, po measured after 6 days by RT-PCR analysis; type: functional, organism-based; conditions: dose 0.3-0.5 mg/kg, time 6.0 day
[9] = target: Amyloid-beta precursor protein (Homo sapiens) (UniProt P05067); test: Inhibition of amyloid beta (1 to 42) (unknown origin) self induced aggregation at 1.521 uM incubated for 72 hrs by ThT fluorescence based assay
Sequence of Amyloid-beta precursor protein (Homo sapiens) (P05067 whole entry): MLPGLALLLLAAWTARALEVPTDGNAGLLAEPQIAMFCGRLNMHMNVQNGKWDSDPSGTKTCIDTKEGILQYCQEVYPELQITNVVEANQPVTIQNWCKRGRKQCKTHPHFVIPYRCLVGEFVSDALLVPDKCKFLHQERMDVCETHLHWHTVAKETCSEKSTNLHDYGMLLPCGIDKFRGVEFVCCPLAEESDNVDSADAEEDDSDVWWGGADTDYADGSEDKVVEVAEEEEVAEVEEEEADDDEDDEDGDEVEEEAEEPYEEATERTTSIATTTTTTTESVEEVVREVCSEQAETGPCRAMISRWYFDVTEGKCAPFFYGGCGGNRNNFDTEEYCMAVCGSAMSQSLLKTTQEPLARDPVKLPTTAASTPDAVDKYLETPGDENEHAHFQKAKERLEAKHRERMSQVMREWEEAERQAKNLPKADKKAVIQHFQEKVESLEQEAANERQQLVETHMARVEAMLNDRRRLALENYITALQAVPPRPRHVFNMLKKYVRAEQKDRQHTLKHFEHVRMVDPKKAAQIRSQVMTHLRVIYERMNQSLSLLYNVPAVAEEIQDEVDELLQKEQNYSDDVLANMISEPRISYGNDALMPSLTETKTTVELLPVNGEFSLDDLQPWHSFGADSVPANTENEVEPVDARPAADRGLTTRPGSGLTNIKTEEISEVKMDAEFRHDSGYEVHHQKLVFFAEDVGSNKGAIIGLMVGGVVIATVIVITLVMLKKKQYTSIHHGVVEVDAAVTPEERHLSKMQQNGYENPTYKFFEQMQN

[10] = system: PC-12; test: Induction of apoptosis in rat PC-12 cells assessed as viable cells at 2.5 uM incubated for 24 hrs by Annexin V/PI staining based flow cytometry analysis (reference value: 82.8%); type: functional; conditions: read-out: Activity
[11] = system: Mus musculus; test: Antialzheimer activity in scopolamine-induced Swiss albino mouse model assessed as improvement in memory retention by measuring time spent in platform quadrant at 0.3 to 0.5 mg/kg, po preincubated with compound for 30 mins followed by scopolamine induction and measured after 5 days by Morris water maze test; type: functional, organism-based; conditions: dose 0.3-0.5 mg/kg, time 7230.0 min
[12] = system: PC-12; test: Neuroprotective activity against H2O2-induced oxidative stress in rat PC-12 cells assessed as cell viability at 1 to 20 uM preincubated with compound for 24 hrs and followed by H2O2 induction and measured after 24 hrs by MTT assay; type: functional, cell-based; conditions: dose 1-20 µM, time 48.0 hrs
[13] = target: T1, Acetylcholinesterase (Homo sapiens, UniProt P22303); test: Displacement of propidium iodide from human AChE PAS assessed as reduction in fluorescence intensity at 0.1 uM incubated for 6 hrs by fluorescence based analysis relative to control; parameters: scale not given: the % may be the effect or the level left
T1 sequence (P22303 whole entry): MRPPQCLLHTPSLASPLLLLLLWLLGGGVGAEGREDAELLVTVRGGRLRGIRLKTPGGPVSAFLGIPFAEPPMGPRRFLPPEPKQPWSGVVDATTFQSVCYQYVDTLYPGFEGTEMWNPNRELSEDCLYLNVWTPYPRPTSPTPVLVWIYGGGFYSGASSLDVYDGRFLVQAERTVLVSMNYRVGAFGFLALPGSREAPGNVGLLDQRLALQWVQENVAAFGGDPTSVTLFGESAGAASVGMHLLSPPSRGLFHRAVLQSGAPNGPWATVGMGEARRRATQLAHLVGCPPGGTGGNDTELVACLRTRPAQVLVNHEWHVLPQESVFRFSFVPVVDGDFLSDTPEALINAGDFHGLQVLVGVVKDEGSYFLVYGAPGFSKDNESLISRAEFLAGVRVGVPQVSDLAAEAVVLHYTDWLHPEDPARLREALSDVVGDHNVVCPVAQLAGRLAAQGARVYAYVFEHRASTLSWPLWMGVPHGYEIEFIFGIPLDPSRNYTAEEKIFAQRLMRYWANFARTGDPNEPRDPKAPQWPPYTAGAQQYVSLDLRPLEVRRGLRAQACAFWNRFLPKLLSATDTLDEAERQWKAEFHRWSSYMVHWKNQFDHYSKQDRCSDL

[14] = target: T1, Acetylcholinesterase; test: Inhibition of human recombinant AChE expressed in HEK293 cells using acetylthiocholine iodide as substrate preincubated with compound for 30 mins followed by substrate addition and measured after 30 mins by DTNB reagent based Ellman's method
[15] = Acute toxicity in Swiss albino mouse assessed as animal survival at 175 mg/kg, po administered for 14 days; type: organism-based; conditions: in vivo, 336 h, time 14 day
[16] = Metal chelating activity assessed as compound-Fe2+ complex formation by measuring increase in absorption intensity at 300 uM in presence of by UV-vis spectrometry
[17] = target: T1, Acetylcholinesterase; test: Displacement of propidium iodide from human AChE PAS assessed as reduction in fluorescence intensity at 0.01 uM incubated for 6 hrs by fluorescence based analysis relative to control; parameters: scale not given: the % may be the effect or the level left
[18] = Antioxidant activity assessed as DPPH radical scavenging activity incubated for 30 mins; type: functional
[19] = system: PC-12; test: Cytotoxicity against rat PC-12 cells assessed as cell viability upto 20 uM measured for 24 hrs by MTT assay; type: toxicity, cell-based; conditions: pc-12, 24 h
[20] = target: Cholinesterase (Equus caballus, UniProt P81908); test: Inhibition of equine serum BChE using acetylthiocholine iodide as substrate preincubated with compound for 30 mins followed by substrate addition and measured after 30 mins by DTNB reagent based Ellman's method
Sequence of Cholinesterase (P81908 whole entry): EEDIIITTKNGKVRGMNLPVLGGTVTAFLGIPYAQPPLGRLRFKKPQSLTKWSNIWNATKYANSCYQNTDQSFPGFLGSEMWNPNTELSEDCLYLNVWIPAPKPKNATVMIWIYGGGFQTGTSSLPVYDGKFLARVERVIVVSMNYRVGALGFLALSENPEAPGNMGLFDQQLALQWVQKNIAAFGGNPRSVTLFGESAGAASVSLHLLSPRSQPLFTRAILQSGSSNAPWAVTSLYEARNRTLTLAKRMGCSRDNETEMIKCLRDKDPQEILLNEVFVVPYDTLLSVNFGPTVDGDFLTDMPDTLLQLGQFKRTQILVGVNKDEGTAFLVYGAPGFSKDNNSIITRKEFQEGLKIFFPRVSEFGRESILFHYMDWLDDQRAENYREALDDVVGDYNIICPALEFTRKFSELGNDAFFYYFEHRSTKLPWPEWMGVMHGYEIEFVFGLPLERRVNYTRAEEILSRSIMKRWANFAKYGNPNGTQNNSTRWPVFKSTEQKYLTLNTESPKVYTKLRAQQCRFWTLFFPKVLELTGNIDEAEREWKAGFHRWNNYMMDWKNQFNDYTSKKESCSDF

[21] = system: Mus musculus; test: Antialzheimer activity in scopolamine-induced Swiss albino mouse model assessed as reduction in AChE level at 0.3 to 0.5 mg/kg, po preincubated with compound for 30 mins followed by scopolamine induction and measured after 30 mins; type: functional, organism-based; conditions: dose 0.3-0.5 mg/kg, time 1.0 hrs
[22] = Permeability of the compound across blood brain barrier; type: ADME; conditions: read-out: BBB
[23] = system: Mus musculus; test: Neuroprotective activity against scopolamine-induced Swiss albino mouse model assessed as effect on PSD95 mRNA level at 0.3 to 0.5 mg/kg, po measured after 6 days by RT-PCR analysis; type: functional, organism-based; conditions: dose 0.3-0.5 mg/kg, time 6.0 day
[24] = target: Amyloid-beta precursor protein (Homo sapiens) (UniProt P05067); test: Inhibition of amyloid beta (1 to 42) (unknown origin) self induced aggregation at 1.521 uM incubated for 72 hrs by transmission electron microscopic analysis
[25] = system: Mus musculus; test: Neuroprotective activity against scopolamine-induced Swiss albino mouse model assessed as upregulation of MMP9 mRNA level at 0.3 to 0.5 mg/kg, po measured after 6 days by RT-PCR analysis; type: functional, organism-based; conditions: dose 0.3-0.5 mg/kg, time 6.0 day
[26] = target: T1, Acetylcholinesterase; test: Displacement of propidium iodide from human AChE PAS assessed as reduction in fluorescence intensity at 5 uM incubated for 6 hrs by fluorescence based analysis relative to control; parameters: scale not given: the % may be the effect or the level left
[27] = system: Mus musculus; test: Antioxidant activity against scopolamine-induced Swiss albino mouse model assessed as increase in MDA level at 0.3 to 0.5 mg/kg, po by absorbance based analysis; type: functional, organism-based; conditions: dose 0.3-0.5 mg/kg
[28] = system: PC-12; test: Induction of apoptosis in rat PC-12 cells assessed as viable cells at 5 uM incubated for 24 hrs by Annexin V/PI staining based flow cytometry analysis (reference value: 82.8%); type: functional; conditions: read-out: Activity
[29] = system: PC-12; test: Induction of apoptosis in rat PC-12 cells assessed as viable cells at 10 uM incubated for 24 hrs by Annexin V/PI staining based flow cytometry analysis (reference value: 82.8%); type: functional; conditions: read-out: Activity
[30] = Acute toxicity in Swiss albino mouse assessed as convulsion at 175 mg/kg, po administered for 14 days; type: organism-based; conditions: in vivo, 336 h, time 14 day
[31] = system: Mus musculus; test: Antioxidant activity against scopolamine-induced Swiss albino mouse model assessed as increase in SOD level at 0.3 to 0.5 mg/kg, po by absorbance based analysis; type: functional, organism-based; conditions: dose 0.3-0.5 mg/kg
[32] = system: Mus musculus; test: Antialzheimer activity in scopolamine-induced Swiss albino mouse model assessed as decrease in escape latency at 0.3 to 0.5 mg/kg, po preincubated with compound for 30 mins followed by scopolamine induction and measured after 5 days by Morris water maze test; type: functional, organism-based; conditions: dose 0.3-0.5 mg/kg, time 7230.0 min
[33] = Metal chelating activity assessed as compound-Cu2+ complex formation by measuring increase in absorption intensity at 300 uM in presence of by UV-vis spectrometry
[34] = Acute toxicity in Swiss albino mouse assessed as body weight gain at 175 mg/kg, po administered for 14 days; type: organism-based; conditions: in vivo, 336 h, time 14 day
[35] = system: Drosophila melanogaster; test: Anti-alzheimer activity in ey-GAL4 driven UAS-amyloid beta (1 to 42) induced Drosophila melanogaster Oregon R-positive assessed as fold increase in superoxide level at 10 uM by fluorescence based analysis; type: functional
[36] = system: Mus musculus; test: Neuroprotective activity against scopolamine-induced Swiss albino mouse model assessed as effect on GAP43 mRNA level at 0.3 to 0.5 mg/kg, po measured after 6 days by RT-PCR analysis; type: functional, organism-based; conditions: dose 0.3-0.5 mg/kg, time 6.0 day
[37] = system: Mus musculus; test: Neuroprotective activity against scopolamine-induced Swiss albino mouse model assessed as increase in NR4A2 mRNA level at 0.3 to 0.5 mg/kg, po measured after 6 days by RT-PCR analysis; type: functional, organism-based; conditions: dose 0.3-0.5 mg/kg, time 6.0 day
[38] = target: T1, Acetylcholinesterase; test: Displacement of propidium iodide from human AChE PAS assessed as reduction in fluorescence intensity at 1 uM incubated for 6 hrs by fluorescence based analysis relative to control; parameters: scale not given: the % may be the effect or the level left
[39] = system: Drosophila melanogaster; test: Inhibition of oxidative stress in y-GAL4 driven UAS-amyloid beta (1 to 42) induced Drosophila melanogaster Oregon R-positive assessed as fold increase in ROS level at 10 to 20 uM incubated for 30 mins by H2DCFDA staining based analysis; type: functional; conditions: dose 10-20 µM, 0.5 h
[40] = system: PC-12; test: Induction of apoptosis in rat PC-12 cells assessed as viable cells at 20 uM incubated for 24 hrs by Annexin V/PI staining based flow cytometry analysis (reference value: 82.8%); type: functional; conditions: read-out: Activity

SMILES: C[C@@H](c1cccc(OC(=O)NCCc2c[nH]c3ccc(O)cc23)c1)N(C)C
- Activity [1]: Active
- Activity [2]: Non-toxic
- Activity [3]: Active
- Activity [4]: 9%
- Activity [5]: Non-toxic
- Activity [6]: Active
- Activity [7]: Active
- Activity [8]: Active
- inhibition [9]: 100%
- viability at 2.5 µM [10]: 65.9%
- Activity [11]: Active
- Activity [12]: Active
- Activity [13]: 5.56%
- IC50 [14]: 0.99 nM
- Activity [15]: Non-toxic
- Activity [16]: inactive
- Activity [17]: 3.54%
- IC50 [18]: 22900 nM
- Activity [19]: Non-toxic
- IC50 [20]: 27.8 nM
- Activity [21]: Active
- Papp [22]: 11.5 ×10⁻⁶ cm/s
- Activity [23]: Active
- inhibition [24]: Active
- Activity [25]: Active
- Activity [26]: 26.2%
- Activity [27]: Active
- viability at 5 µM [28]: 71.3%
- viability at 10 µM [29]: 63.3%
- Activity [30]: Non-toxic
- Activity [31]: Active
- Activity [32]: Active
- Activity [33]: inactive
- Activity [34]: Non-toxic
- fold change (FC) [35]: 1.25
- Activity [36]: Active
- Activity [37]: Active
- Activity [38]: 18.3%
- fold change (FC) [39]: 1.8
- viability at 20 µM [40]: 80.7%
